Patent publication US20070265451A1, “Process for the preparation of oxazolidinones and method of use thereof” (Board of Trustees of Michigan State University, priority 2001, published 2007)
≈ marks a conversion by molar mass, not a printed value. Like-named read-outs stand apart in the source and are kept apart here.

Experiments:
Format in all cases: cell-based
[1] = test system: Staphylococcus aureus 29213; assay: Broth microdilution MIC, Staphylococcus aureus ATCC 29213; details: for MIC90 / MIC: Staphylococcus aureus; for MIC90: ATCC29212, Table 1, SA, strain ATCC 29212, read-out: MIC90-100 SA ATCC 29212; for MIC: ATCC29213, Table 2, read-out: MIC(90-100) SA-ATCC 29213
Description: (§1) See, NCCLS document M7-A5. Methods for Dilution Antimicrobial Susceptibility Tests for Bacteria That Grow Aerobically; Approved Standard-Fifth Edition. Volume 20, Number 2. January 2000, (ISBN 1-56238-394-9) and Lorian V. Antibiotics. Laboratory Medicine. 4th ed. Baltimore: Williams and Wilkins, pp. 52-111 (1996). For subsequent testing, the following strains have been used: Staphylococcus aureus NRS4 (992; HIP5836; New Jersey) (Smith et al., New Engl. J. Med. 340: 493-501 (1999); Tenover et al., J. Clin. Microbiol. 36: 1020-1027 (1998)), Staphylococcus aureus NRS3 (963sm; HIP5827; Michigan) (Smith et al., ibid.; Tenover et al., ibid.), Staphylococcus aureus NRS103 (Becker) (Karakawa and Vann, Sem. Infect. Dis. 4: 285 (1982), Staphylococcus aureus NRS102 (Reynolds) Karakawa and Vann, ibid; McMurray et al., JID 162: 759-762 (1990)), Staphylococcus epidermidis NRS101 (ATCC 35984), Streptococcus pneumoniae (ATCC 49619), Enterococcus faecalis (ATCC 51299), and Staphylococcus aureus (ATCC 43300.
(§2) Stock cultures of these strains were obtained by seeding colonies from overnight streak plates (Tryptic Soy Agar II (TSAII) and 5% sheep's blood (SB) agar plates: Becton Dickinson, CA#2211261) into sterile Mueller-Hinton Broth (MHB)(Becton Dickinson, CA#211443) and growing the suspensions to mid-late log phase in 13 mL screw-cap tubes. Glycerol (Sigma, CA#G-6279) was sterilized by autoclaving for 15 minutes at 121° C. in 6 mL volumes, and then stored at 2-8° C. This was diluted to 20% in dH2O, and then added 1:1 (250 μL:250 μL, 10% final glycerol concentration) to the logarithmically growing bacterial suspension of each strain. Tubes were frozen and stored at −70° C. Purity of the stock cultures was tested by thawing one tube of each strain in a water bath at 37° C. and plating them on TSAII with 5% SB. Plates were incubated overnight at 37° C. and colonies were examined for morphology. Growth curves and approximate CFU/mL were also obtained.
(§3) High purity substituted oxazolidinones prepared according to the method of the present invention and a ZYVOX standard (ZYVOX is a trade name for linezolid available from Pharmacia Corporation) were provided by Synthon Corporation, Monmouth Junction, N.J. Compounds were dissolved at 10 mg/mL in DMSO, as after a dilution of approx. 39.0 to reach the desired final starting concentration of 256 ug/ml, the concentration of DMSO is approximately 2.5%. Compounds were then stored at room temperature (25° C.) in the dark.
(§4) Antimicrobial susceptibility screening was as follows. All compounds were initially screened for activity in duplicate at 256 μg/mL (2.5% DMSO), including ZYVOX, the positive control for antimicrobial activity. A single well of bacterially inoculated 2.5% DMSO served as a positive control for bacterial growth, while a well of DMSO inoculated with of 50 μL of sterile 0.9% saline served as a negative growth control. Controls were prepared on every microplate, so that 46 was the maximum number of compounds that were screened per plate. Broth was pipetted into sterile microcentrifuge tubes, to which the compounds were then added (1:19.53 dilution or 2× final concentration). Each tube was vortexed, and 50 μL was immediately transferred to the microplate wells for each strain. Solubility was assessed by visual observation. MB (medium broth solubility) was recorded if the solution appeared only slightly cloudy. LB (low broth solubility) was recorded if the solution was extremely cloudy, and especially if larger, clumpy precipitates formed. Bacteria were grown as described above, although absorbance was measured at 650 nm and bacteria were diluted to an initial OD of 0.12-0.15. Bacteria were then further diluted 1:100 with 0.9% sterile saline. Within 15 minutes of this final dilution, 50 μL of this suspension was added to each well for a final volume of […], and a final bacterial concentration of 1×10^5 CFU/mL (except for the negative control well). Plates were grown as above and all observations were recorded. […]

[2] = test system: Enterococcus faecalis 29212; assay: Broth microdilution MIC, Enterococcus faecalis ATCC 29212; details: for MIC90 / MIC: Enterococcus faecalis; for MIC90: ATCC29213, Table 1, read-out: MIC90-100 EF ATCC 29213; for MIC: ATCC29212, Table 2, read-out: MIC(90-100) EF-ATCC 29212
[3] = test system: Staphylococcus aureus NRS4 (992; HIP5836; New Jersey); assay: Broth microdilution MIC, MR SA New Jersey; details: strain New Jersey; for MIC90: Staphylococcus aureus, NRS4, methicillin resistant SA, read-out: MIC90-100 MR SA New Jersey
Description: as §1, §2, §3, §4

[4] = test system: Staphylococcus aureus NRS3 (963sm; HIP5827; Michigan); assay: Broth microdilution MIC, MR SA Michigan; details: strain Michigan; for MIC90: Staphylococcus aureus, NRS3, methicillin resistant SA, read-out: MIC90-100 MR SA Michigan
Description: as §1, §2, §3, §4

[5] = test system: Staphylococcus aureus NRS102 (Reynolds); assay: Broth microdilution MIC, Pen. R SA Reynolds; details: strain Reynolds, read-out: MIC90-100 Pen. R SA Reynolds
Description: as §1, §2, §3, §4

[6] = test system: Staphylococcus aureus NRS103 (Becker); assay: Broth microdilution MIC, Ref SA Becker; details: strain Becker, read-out: MIC90-100 Ref SA Becker
Description: as §1, §2, §3, §4

[7] = test system: Enterococcus faecalis (ATCC 51299); assay: Broth microdilution MIC, Enterococcus faecalis ATCC 51299
Description: as §1, §2, §3, §4

[8] = test system: Staphylococcus aureus (ATCC 43300); assay: Broth microdilution MIC, MR SA ATCC 43300; details: ATCC43300, methicillin resistant SA, read-out: MIC90-100 MR SA ATCC 43300
Description: as §1, §2, §3, §4

[9] = test system: Myeloid bone marrow cells; assay: Bone marrow cell growth inhibition, myeloid
Description: (§5) In general, many of the substituted oxazolidinones were as effective as ZYVOX.

[10] = test system: Erythroid bone marrow cells; assay: Bone marrow cell growth inhibition, erythroid
Description: as §5

[11] = test system: Megakaryocytic bone marrow cells; assay: Bone marrow cell growth inhibition, megakaryocytic
Description: as §5

[12] = ATCC51299, read-out: MIC90-100 VS EF ATCC 51299

| Compound | MIC90 [1] [mg/L] | MIC90 ([2]; EF, strain printed ATCC 29213) [mg/L] | MIC90 [3] [mg/L] | MIC90 [4] [mg/L] | MIC90 [5] [mg/L] | MIC90 [6] [mg/L] | MIC [1] [mg/L] | MIC [2] [mg/L] | further results |
| --- | --- | --- | --- | --- | --- | --- | --- | --- | --- |
| O=C1O[C@H](CNSc2ccc([N+](=O)[O-])cc2)CN1c1ccc([N+](=O)[O-])cc1 [Compound 2278] | 4 (≈ 10.2 µM) | 2 (≈ 5.12 µM) | 4 (≈ 10.2 µM) | 4 (≈ 10.2 µM) | 8 (≈ 20.5 µM) | 8 (≈ 20.5 µM) |  |  |  |
| CC(C)N1C[C@@H](COS(=O)(=O)c2ccc([N+](=O)[O-])cc2)OC1=O [Compound 253] | 8 to 16 (≈ 23.2 to 46.5 µM) | 250 (≈ 726 µM) | 256 (≈ 743 µM) | 256 (≈ 743 µM) |  |  | 15.6 (≈ 45.3 µM) |  | MIC90 ([7]; ATCC51299, vancomycin sensitive EF, ATCC 51299, read-out: MIC90-100 VS EF ATCC 51299): > 256 mg/L; MIC90 [8]: > 256 mg/L; IC50 [9]: 30 mg/L (≈ 87.1 µM); IC50 [10]: 7 mg/L (≈ 20.3 µM); IC50 [11]: 10 mg/L (≈ 29 µM) |
| COc1ccc(C(=O)CN2C[C@@H](COS(=O)(=O)c3ccc(Cl)c4nonc34)OC2=O)cc1 [Compound 207] | 64 to 125 (≈ 133 to 259 µM) | 250 (≈ 519 µM) |  |  |  |  |  |  | IC50 [9]: 0.8 mg/L (≈ 1.66 µM); IC50 [10]: 0.2 mg/L (≈ 0.415 µM); IC50 [11]: 3 mg/L (≈ 6.23 µM) |
| CCN1C[C@@H](COS(=O)(=O)c2ccc([N+](=O)[O-])cc2)OC1=O [Compound 2405] | 2 (≈ 6.05 µM) |  |  |  | 8 (≈ 24.2 µM) | 4 (≈ 12.1 µM) |  |  | MIC90-100 EF ATCC 29213 ([2]; Table 1, EF, strain printed ATCC 29213): 2 mg/L (≈ 6.05 µM); MIC90-100 MR SA New Jersey ([3]; methicillin resistant SA): 4 mg/L (≈ 12.1 µM); MIC90-100 MR SA Michigan ([4]; methicillin resistant SA): 2 mg/L (≈ 6.05 µM) |
| CC(C)(C)OC(=O)/C=C/N1C[C@@H](COS(=O)(=O)c2ccc([N+](=O)[O-])cc2)OC1=O [Compound 1001] |  |  |  |  |  |  | 64 (≈ 149 µM) | 125 (≈ 292 µM) |  |
| CN1C[C@@H](CNSc2ccc([N+](=O)[O-])cc2)OC1=O [Compound 1687] | 2 (≈ 7.06 µM) | 2 (≈ 7.06 µM) | 2 (≈ 7.06 µM) | 2 (≈ 7.06 µM) | 3 (≈ 10.6 µM) | 3 (≈ 10.6 µM) |  |  | IC50 [9]: 20 mg/L (≈ 70.6 µM); IC50 [10]: 0.01 mg/L (≈ 0.0353 µM); IC50 [11]: 6 mg/L (≈ 21.2 µM) |
| O=C(OC[C@H]1CN(c2ccc([N+](=O)[O-])cc2)C(=O)O1)Oc1ccc([N+](=O)[O-])cc1 [Compound 1809] | 4 to 8 (≈ 9.92 to 19.8 µM) | 4 (≈ 9.92 µM) | 3 (≈ 7.44 µM) | 3 (≈ 7.44 µM) | 8 (≈ 19.8 µM) | 4 (≈ 9.92 µM) | 8 (≈ 19.8 µM) | 4 (≈ 9.92 µM) | MIC90 [7, 12]: 2 mg/L (≈ 4.96 µM); MIC90 [8]: 4 mg/L (≈ 9.92 µM) |
| COc1ccc(C(=O)CN2CC(COS(=O)(=O)c3sc(NC(C)=O)nc3C)OC2=O)c(OC)c1 (stereo not drawn) [Compound 324] |  |  |  |  |  |  | 62.5 (≈ 122 µM) | 250 (≈ 487 µM) |  |
| CCC#CCN1CC(COS(=O)(=O)c2ccc([N+](=O)[O-])cc2)OC1=O (stereo not drawn) [Compound 294] |  |  |  |  |  |  | 31.3 (≈ 85 µM) | 250 (≈ 679 µM) |  |
| COC(=O)CN1C[C@@H](COS(=O)(=O)c2ccc(Cl)c3nonc23)OC1=O [Compound 674] |  |  |  |  |  |  | 250 (≈ 616 µM) | 125 (≈ 308 µM) |  |
| CN(C)C(=O)/C=C/N1C[C@@H](COS(=O)(=O)c2ccc([N+](=O)[O-])cc2)OC1=O [Compound 1632] |  |  |  |  |  |  | 16 (≈ 40.1 µM) | 64 (≈ 160 µM) |  |
| O=C(CN1CC(COS(=O)(=O)c2ccc(Cl)c3nonc23)OC1=O)c1ccc(F)cc1 (stereo not drawn) [Compound 369] |  |  |  |  |  |  | 250 (≈ 532 µM) | 31.3 (≈ 66.6 µM) |  |
| CC(C)N1C[C@H](CNSc2ccc([N+](=O)[O-])cc2)OC1=O [Compound 2428] | 4 (≈ 12.8 µM) | 4 (≈ 12.8 µM) | 4 to 8 (≈ 12.8 to 25.7 µM) | 4 to 8 (≈ 12.8 to 25.7 µM) | 32 (≈ 103 µM) | 16 (≈ 51.4 µM) |  |  |  |
| O=C1O[C@@H](COc2ccc3c4c2CCCN4CCC3)CN1c1ccc([N+](=O)[O-])cc1 [Compound 1965] |  |  |  |  |  |  | 32 (≈ 78.2 µM) | 8 (≈ 19.5 µM) |  |
| COc1cccc(CN2CC(COS(=O)(=O)c3ccc(Cl)c4nonc34)OC2=O)c1 (stereo not drawn) [Compound 323] |  |  |  |  |  |  | 250 (≈ 551 µM) | 125 (≈ 275 µM) |  |
| O=C1OC(COSc2ccc([N+](=O)[O-])cc2)CN1Cc1ccc([N+](=O)[O-])cc1 (stereo not drawn) [Compound 2017] |  |  |  |  |  |  | 16 (≈ 39.5 µM) | 8 (≈ 19.7 µM) |  |
| CCCCN1CC(COS(=O)(=O)c2ccc(Cl)c3nonc23)OC1=O (stereo not drawn) [Compound 1141] |  |  |  |  |  |  | 64 (≈ 164 µM) | 128 (≈ 328 µM) |  |
| O=C1O[C@@H](COSc2ccc([N+](=O)[O-])cc2)CN1c1ccc([N+](=O)[O-])cc1 [Compound 1808] | 4 to 8 (≈ 10.2 to 20.4 µM) | 2 (≈ 5.11 µM) | 4 (≈ 10.2 µM) | 3 (≈ 7.67 µM) | 16 (≈ 40.9 µM) | 16 (≈ 40.9 µM) | 8 (≈ 20.4 µM) | 2 (≈ 5.11 µM) | MIC90 [7, 12]: 2 mg/L (≈ 5.11 µM); MIC90 [8]: 8 mg/L (≈ 20.4 µM) |
| O=C(CN1CC(COS(=O)(=O)c2ccc(Cl)c3nonc23)OC1=O)c1ccc(F)cc1 (stereo not drawn) [Compound 401] |  |  |  |  |  |  |  |  | MIC(90-100) SA-ATCC 29213 ([1]; Table 2): 250 mg/L (≈ 532 µM); MIC(90-100) EF-ATCC 29212 ([2]; Table 2): 62.5 mg/L (≈ 133 µM) |
